Assays:
HCT-116 cells = test: Growth inhibition with 25-OHC co-administration; format: cell-based, human; conditions: for effect of 25-OHC co-administration on the antiproliferative activity: 10 μM 25-OHC for 1 and 2
Experimental: 25-OHC (11) is a high-affinity ligand of OSBP1 and ORP4L that is not cytotoxic at concentrations up to 10 μM. Example 1 established that the ORPphilins compete with 25-OHC for binding to OSBP1 and ORP4L (FIG. 2D,E). Therefore, if OSBP1 and ORP4L mediate the biological activities of these compounds, co-administration of sub-lethal doses of 25-OHC with the ORPphilins should inhibit binding of the ORPphilins to OSBP1 and ORP4L, thereby desensitizing cells to the cytotoxic effects of the ORPphilins.

ORP4L-myc-his = molecular target: T1, ORP4L-myc-his (Homo sapiens, UniProt Q969R2); test: [3H]-25-hydroxycholesterol charcoal-dextran binding assay with ORP4L-myc-his; conditions: for Ki: read-out: [^3H]-25-OHC K1 (nM) ORP4L-myc-his, competition with 20 nM [3H]-25-OHC, HEK-293T S100 lysate, 4° C., 16 h; for fold lower affinity for ORP4L than for OSBP1: ratio of Ki values
T1 sequence (Q969R2 1-916): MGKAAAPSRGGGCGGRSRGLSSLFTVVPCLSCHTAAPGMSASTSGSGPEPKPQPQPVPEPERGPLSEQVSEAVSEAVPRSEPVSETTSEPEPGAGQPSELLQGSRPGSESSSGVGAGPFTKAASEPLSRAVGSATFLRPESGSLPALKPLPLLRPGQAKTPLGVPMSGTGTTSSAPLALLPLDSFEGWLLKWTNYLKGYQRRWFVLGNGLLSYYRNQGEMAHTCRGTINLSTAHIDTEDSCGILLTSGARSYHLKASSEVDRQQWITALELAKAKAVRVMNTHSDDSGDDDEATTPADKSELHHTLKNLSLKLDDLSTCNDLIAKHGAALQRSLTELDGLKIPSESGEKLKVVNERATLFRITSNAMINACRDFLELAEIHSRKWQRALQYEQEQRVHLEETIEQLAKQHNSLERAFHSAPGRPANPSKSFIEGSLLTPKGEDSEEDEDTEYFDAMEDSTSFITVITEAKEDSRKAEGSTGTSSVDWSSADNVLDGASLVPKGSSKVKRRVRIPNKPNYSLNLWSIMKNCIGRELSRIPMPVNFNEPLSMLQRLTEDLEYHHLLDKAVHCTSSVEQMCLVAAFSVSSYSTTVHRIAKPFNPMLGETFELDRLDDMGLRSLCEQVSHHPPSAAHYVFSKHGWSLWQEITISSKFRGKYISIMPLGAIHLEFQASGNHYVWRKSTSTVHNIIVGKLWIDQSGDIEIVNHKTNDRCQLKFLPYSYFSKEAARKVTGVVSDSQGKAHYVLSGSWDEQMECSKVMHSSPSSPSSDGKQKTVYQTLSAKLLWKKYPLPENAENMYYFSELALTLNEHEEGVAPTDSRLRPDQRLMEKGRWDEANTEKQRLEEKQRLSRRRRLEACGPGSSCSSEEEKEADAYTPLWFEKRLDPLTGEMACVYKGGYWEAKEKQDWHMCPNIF
Experimental: [^3H]-25-Hydroxycholesterol charcoal-dextran binding assay. […] These vectors were transfected into HEK-293T cells using Lipofectamine™2000 (Invitrogen), and 48 h after transfection, on-plate lysis of the transfected cells with the M-Per®/HALT™ with EDTA (ThermoScientific) reagent was performed, followed by ultracentrifugation at 100,000 g. The S100 lysate was diluted to 0.2 mg/mL, aliquoted and stored at −80° C. until use. The HEK-293T OSBP1-, ORP4L- or lacZ-myc-his lysate was incubated with [^3H]-25-hydroxycholesterol at 4° C. for 16 h in 96-well plates. After incubation, charcoal/dextran (C/D) was added to the wells for 30 min of shaking at RT, followed by centrifugation for 15 min at 1900 g to pellet the C/D. The C/D-cleared lysate was added to MicroScint™-20 (PerkinElmer) scintillation fluid, and the remaining protein-bound radiolabel was quantified using a TopCount™ scintillation counter. [^3H]-25-hydroxycholesterol binding curves and competition curves were repeated at least three times.
Lysates were thawed on ice, with brief periods of hand warming. Both the ^3H-25-OHC direct binding assays and the ^3H-25-OHC competition binding assays were set up similarly, with a large stock of binding assay lysate being prepared, then 73.5 μL of the binding assay mixture dispensed using a multi-channel pipettor into “V”-shaped 96-well plates. For the ^3H-25-OHC direct binding assay, 1.5 μL of ^3H-25-OHC and ^3H-25-OHC/40×25-OHC added to the wells in dilutions in 100% ethanol. For the ^3H-25-OHC competition binding assays, ^3H-25-OHC was added to the large stock of binding assay lysate to a final concentration of 20 nM. This ^3H-25-OHC-containing binding lysate was then dispensed using a multi-channel pipettor into the 96-well plates. Then, 1.5 μL of a serial dilution of the inhibitors in either 100% ethanol (25-OHC) or DMSO (the ORPphilins) was added to each well.
The binding lysate used in each well of the 96-well plate consisted of 60 μL of 0.2 mg/mL S100 lysate, 7.5 μL 20% PVA, and 5.6 μL 2M KCl. For ^3H-25-OHC binding curve experiments, 0.4 μL of buffer was then added (total volume per well: 73.5 μL). For the ^3H-25-OHC inhibition competition assays, 0.11 μL of 13.2 μM ^3H-25-OHC and 0.29 μL binding buffer was added for each well (total volume per well: 73.5 μL).
Binding assays were incubated, standing, for 16 h at 4° C. Then 30 μL of the rt C/D solution was multichannel pipetted into new “V’ shaped 96-well plates, and 60 μL of the binding lysate mixture was then added. The plates were briefly, lightly vortexed (˜10 sec), 10 and then rocked at 250 rpm for 30 min at rt. The plates were then centrifuged at 1900 g for 15 min at 4° C. in Microplate Carriers (Sorvall cat. #75006449S) in a Sorvall Legend RT centrifuge. Carefully so as to not disturb the C/D pellet, 30 μL of the supernatant was transferred to 170 μL of Microscint-20 in the OptiPlates. The plates were sealed with the TopSealA-Films, and vigorously vortexed (max speed, >1 min). ^3H-25-OHC detection in the wells was then performed using a TopCount Scintillation detector, counting each well for 2 min. Data was graphed and analyzed using GraphPad PrismS, using non-linear regression to determine KD and K1 values.
Binding experiments were performed at 4° C. for 16 h. Unbound sterol was removed using dextran-coated charcoal, and protein-bound sterol left in the supernatant was quantified by scintillation counting. Ki-values were determined as mean±s.d. from at least three independent experiments.

[1] = test system: HCT-116 p21^−/− cells with OSBP1-targeting shRNA; test: OSBP1 shRNA knockdown/dose-shift experiment; format: cell-based, human; conditions: shOSBP1 vs shNT, 72 h
Text: FIG. 3A is a series of four bar graphs depicting knockdown/dose-shift experiment in HCT-116 p21^−/− cells stably transfected with either OSBP1-targeting shRNA (shOSBP1) or non-targeting shRNA (shNT). Bars represent s.d. of three or four individual experiments. * P=0.0002 (n=3); ** P=0.0006 (n=4); *** P=0.0003 (n=3) compared to shNT cells (two-tailed students t-test).
To ascertain if the antiproliferative activity of the ORPphilins depended on the levels of OSBP1 and ORP4L in cells, short hairpin RNA (shRNA) knockdown of OSBP1 expression was performed and then its effect on the growth inhibitory activity of 1, 2, and 4a measured. […] Similar results were obtained in HeLa cells. Overexpression of OSBP1-myc-his or ORP4L-myc-his (FIG. 3C) for 48 h desensitized HeLa cells to the antiproliferative activity of 1, 2, or 4a by ˜2-5-fold (FIG. 3D). However, taxol-induced growth inhibition was not affected by overexpression of OSBP1-myc-his or ORP4L-myc-his (FIG. 3D).

CHO-7 cells = test: Antiproliferative activity in CHO-7 cells, lipoprotein-deficient media; format: cell-based
Text: FIG. 4B is a bar graph depicting how removal of lipoproteins from the growth medium sensitizes CHO-7 cells to 25-OHC but not 1, 2, or 4a. Mean±s.d. of two individual experiments. Bref A, brefeldin A.
Insig is a chief regulator of SREBP-dependent cholesterol homeostasis, and 25-OHC exerts much of its ability to inhibit cholesterol biosynthesis through its binding to Insig. The possibility that suppression of the antiproliferative activity of the ORPphilins by 25-OHC could be due to displacement of these compounds from NPC1 or Insig was considered. […] In addition, the antiproliferative activity of 1-4a was evaluated in the CHO-7 cell line, which is a cell line adapted to grow in lipoprotein-deficient media. In lipoprotein-deficient media, CHO-7 cells are dependent on Insig-mediated cholesterol biosynthesis for survival, and are therefore sensitive to 25-OHC binding to Insig. Unlike 25-OHC, the antiproliferative activity of 1, 2, and 4a in CHO-7 cells was not enhanced in lipoprotein-deficient media.

Compound | cytotoxicity (HCT-116 cells; concentrations up to 10 μM, cell line not given at the place) | Kd (ORP4L-myc-his; read-out: Kd of [3H]-25-hydroxycholesterol, ORP4L, direct binding) [nM] | effect of 25-OHC co-administration on the antiproliferative activity (HCT-116 cells) | Ki (ORP4L-myc-his) [nM] | sensitization by OSBP1 knockdown (GI50 shift) [1] [fold] | antiproliferative activity in lipoprotein-deficient media (CHO-7 cells) | fold lower affinity for ORP4L than for OSBP1 (ORP4L-myc-his) | fold lower affinity for ORP4L than for OSBP1 (ORP4L-myc-his; listed as 4a) [fold]
C[C@H](CCCC(C)(C)O)[C@H]1CC[C@H]2[C@@H]3CC=C4C[C@@H](O)CC[C@]4(C)[C@H]3CC[C@]12C [Compound 25-OHC, 25-hydroxycholesterol] | not cytotoxic | 54 ± 23 | – | – | – | – | – | –
COc1ccc(C(=O)O[C@H]2[C@H](O[C@@H]3[C@@H](OC(C)=O)[C@H](O[C@H]4C[C@H]5[C@@H]6CC=C7C[C@@H](O)CC[C@]7(C)[C@H]6CC[C@]5(C)[C@@]4(O)[C@H](C)C(=O)CCC(C)C)OC[C@@H]3O)OC[C@@H](O)[C@@H]2O)cc1 [OSW-1] | – | – | nearly complete desensitization | 54 ± 11 | 6 | not enhanced | – | –
C[C@@H]1[C@]2(O[C@H]3C=C4[C@@H]5CC[C@H]6Cc7nc8c(nc7C[C@]6(C)[C@H]5C[C@@H](O)[C@]4(C)[C@]31O)C[C@@H]1CC[C@H]3C4=CC[C@@H]5[C@H](C)[C@@]6(OC[C@]45C(=O)C[C@@H]3[C@@]1(C)C8)OC(C)(C)C[C@H]6O)O[C@](C)(CO)C[C@H]2O [cephalostatin 1, Cephalostatin 1] | – | – | nearly complete desensitization | 78 ± 15 | 4 | not enhanced | – | –
schweinfurthin A | – | – | – | 2600 ± 570 | 9 | not enhanced | approximately 40 fold | ~40

— US9790253B2, “OSW-1 analogs and conjugates, and uses thereof” (priority 2011, dated 2017)
